From patent US6693126B2, “Dihydroxyphenyl derivatives for hepatoprotection and treatment of liver diseases” (Choongwae Pharm. Co., Ltd., priority 2000, dated 2004)

Tested on: Liver Injuries caused by D-galactosamine in Rats
Test: Inhibitory effect against liver injuries caused by D-galactosamine in rats
Type: in vivo, Rats (SD, male)
Conditions: D-galactosamine i.p., serum 24 h
Source text: The hepatoprotective effect of the compound of formula (1) was also identified by D-galactosamine model(see, Koji Hase et al., Biol. Pharm. Bull., 20, 4, 381-385, 1997; Jun-ichi Nagakawa et al., J. Pharmacology and Experimental Therapeutics, 264, 1, 1992; Toxicology of the Liver, Raven Press, New York, 1985). The N-acyl galactosamine resulted from the excess administration of D-galactosamine acts as a substrate for UDP-galactosamine or UDP-N-acyl galactosamine. But, the inordinate synthesis of […] and UDP-hexosamine may inhibit the binding of UTP in the liver cells and biosynthsis of UDP-glucose and UDP-galactose, which finally causes the structural and functional changes of the liver cell membranes. Consequently, it results in sporadic necrosis and the increase of ALT and AST values in blood. Since the toxicity caused by D-galactosamine looks similar to the symptoms of viral hepatitis, D-galactosamine model is also used conventionally as a model for viral hepatitis.
The degree of liver damage in the experimental animals was determined by measuring ALT and AST values in blood(see, Biol. Pharm. Bull., 20, 4, 381-385, 1997; Toxicology and Applied Pharmacology, 95, 1-11, 1988), and the hepatoprotective activity was calculated based on the following formula(see, Planta Medica, 55, 127-132, 1989). At this time, the hepatoprotective activity can also be calculated based on the same formula by replacing ALT value with AST value. [formula]
The hepatoprotective effect of the compound of the present invention was identified according to a known procedure(see, Koji Hase et al., Biol. Pharm. Bull., 20, 4, 381-385, 1997), and the protocol may be described in brief as follows.
Rats(SD, male, 180˜200 g) as the test animal were allowed in a condition of temperature 22±1° C. and relative humidity 60±5%. Feed and water were provided with no restriction while light and darkness were changed at an interval of 12 hours.
The compound of the present invention was suspended in a solvent corn oil, and this suspension was administered in a dose of 2 ml/kg. Each group included 8 test animals, and the test compound was orally administered for once per animal. After 30 minutes from the administration of the test compound, D-galactosamine solution(concentration: 200 mg/ml) in physiological saline was intraperitoneally injected in a dose of 2 ml/kg. As the control compounds, silymarin and DDB were selected.
The test animals were provided with no feed and sufficient water for 24 hours from the administration of D-galactosamine. […] This blood was centrifuged to obtain sera. ALT and AST values in the sera were measured using blood chemistry analyzer(Vitalab, Selectra II, Merck). The statistical significance for the test result of each group was examined based on Student's t-test, and the result was recognized as having a statistical significance when its P value is less than 5%.

| Compound | Inhibitory Effect against Liver Injuries (%) ALT (dose 16.7 mg/kg p.o. once) | Inhibitory Effect against Liver Injuries (%) ALT (dose 50 mg/kg p.o. once) | Inhibitory Effect against Liver Injuries (%) ALT (dose 5.6 mg/kg p.o. once) | Inhibitory Effect against Liver Injuries(%) AST (dose 5.6 mg/kg p.o. once) | Inhibitory Effect against Liver Injuries(%) AST (dose 16.7 mg/kg p.o. once) | Inhibitory Effect against Liver Injuries(%) AST (dose 50 mg/kg p.o. once) |
| --- | --- | --- | --- | --- | --- | --- |
| O/N=C/c1ccc2c(c1)OCO2 [Compound 1] | 5% | 12% | – | – | – | – |
| COc1cc(/C=N/OCc2ccccn2)cc2c1OCO2 [Compound 13, 6-(2-((2-pyridyl)methoxy)-2-azavinyl)-4-methoxybenzo [d]1,3-dioxolane] | 35% | 67% | 34% | – | – | – |
| c1csc(-c2ccc3c(c2)OCO3)n1 [Compound 21, 2-(benzo[3,4-d]1,3-dioxolan-5-yl)-1,3-thiazole] | 32% | 56% | 27% | 29% | 29% | 46% |
| CC(=O)SCC(=O)c1ccc2c(c1)OCO2 [Compound 28, 1-(benzo[3,4-d]1,3-dioxolan-5-yl)-2-acetylthioethan-1-one] | 51% | 52% | 42% | 48% | 55% | 55% |
| COC(=O)c1cc(OC)c2c(c1-c1c(C(=O)OC)cc(OC)c3c1OCO3)OCO2 [DDB, reference compound] | – | 28% | – | – | – | 12% |
